From patent US9605003B2, “Heterocyclic compounds and uses thereof” (Infinity Pharmaceuticals, Inc., priority 2011, dated 2017)
Blank lines part the entries; values can stand above or below the compound they belong to.

Key:
[1] = system: phospho-AKT in RAW 264.7 cells; experiment: PI3Kγ selective cellular assay, phospho-AKT in C5a stimulated RAW 264.7 cells; type: cell-based; details: Mus musculus, RAW264.7, RAW 264.7 cell model
From the text: A compound's ability in selectively inhibiting PI3Kγ can be assessed using RAW264.7 macrophages. Briefly, serum-starved PAW264.7 cells are stimulated with a known GPCR agonist C5a. (See, e.g., Camps et al., Nature Medicine (2005) 11(9): 936-943). Cells can be treated with test compounds prior to, simultaneously with, or subsequent to the stimulation by C5a. RAW 264.7 cells respond to the complement component fragment C5a through activation of the C5a receptor, and the C5a receptor activates macrophages and induces cell migration. Test compounds' ability to inhibit C5a-mediated AKT phosphorylation is indicative of selective inhibition of PI3Kγ. Thus, by monitoring the reduction of phospho-AKT in stimulated RAW 264.7 cells (using for example, phospho-AKT antibodies), a compound's potential efficacy in selectively inhibiting PI3Kγ can be assessed.
Certain compounds provided herein (e.g., Compounds 5, 38, 103, 105, 106, 107, 108, and 109) were tested in RAW 264.7 cell model using procedures as described above.

[2] = system: phospho-AKT in RAJI cells; experiment: PI3Kδ selective cellular assay, phospho-AKT in anti-IgM stimulated RAJI cells; type: cell-based; details: Homo sapiens; RAJI cell model
From the text: A compound's ability in selectively inhibiting PI3Kδ can be assessed using RAJI cells, i.e., B lymphocyte cells derived from lymphoma patients. Briefly, serum-starved RAJI cells are stimulated with anti-human IgM, thereby causing signaling through the B-cell receptors, as described in, for example, He et al., Leukemia Research (2009) 33: 798-802. B-cell receptor signaling is important for the activation, differentiation, and survival of B cells and certain B-cell derived cancers. Reduction of phospho-AKT is indicative of compounds that may inhibit B-cell proliferation and function in certain diseases. By monitoring the reduction of phospho-AKT in stimulated RAJI cells (using for example, phospho-AKT antibodies), a compound's potential efficacy in selectively inhibiting PI3Kδ can be assessed.
Certain compounds provided herein (e.g., Compounds 5, 38, 103, 105, 106, 107, 108, and 109) were tested in RAJI cell model using procedures as described above.

PI3Kα = molecular target: T1, PI3Kα (Homo sapiens, UniProt P42336); experiment: PI3 Kinase HTRF assay, PI3Kα; type: biochemical; details: Between 1 μM and 10 μM; read-out: PI3K α IC50
T1 construct: purchased Millipore Corporation 14-602-K
T1 sequence (P42336 whole entry): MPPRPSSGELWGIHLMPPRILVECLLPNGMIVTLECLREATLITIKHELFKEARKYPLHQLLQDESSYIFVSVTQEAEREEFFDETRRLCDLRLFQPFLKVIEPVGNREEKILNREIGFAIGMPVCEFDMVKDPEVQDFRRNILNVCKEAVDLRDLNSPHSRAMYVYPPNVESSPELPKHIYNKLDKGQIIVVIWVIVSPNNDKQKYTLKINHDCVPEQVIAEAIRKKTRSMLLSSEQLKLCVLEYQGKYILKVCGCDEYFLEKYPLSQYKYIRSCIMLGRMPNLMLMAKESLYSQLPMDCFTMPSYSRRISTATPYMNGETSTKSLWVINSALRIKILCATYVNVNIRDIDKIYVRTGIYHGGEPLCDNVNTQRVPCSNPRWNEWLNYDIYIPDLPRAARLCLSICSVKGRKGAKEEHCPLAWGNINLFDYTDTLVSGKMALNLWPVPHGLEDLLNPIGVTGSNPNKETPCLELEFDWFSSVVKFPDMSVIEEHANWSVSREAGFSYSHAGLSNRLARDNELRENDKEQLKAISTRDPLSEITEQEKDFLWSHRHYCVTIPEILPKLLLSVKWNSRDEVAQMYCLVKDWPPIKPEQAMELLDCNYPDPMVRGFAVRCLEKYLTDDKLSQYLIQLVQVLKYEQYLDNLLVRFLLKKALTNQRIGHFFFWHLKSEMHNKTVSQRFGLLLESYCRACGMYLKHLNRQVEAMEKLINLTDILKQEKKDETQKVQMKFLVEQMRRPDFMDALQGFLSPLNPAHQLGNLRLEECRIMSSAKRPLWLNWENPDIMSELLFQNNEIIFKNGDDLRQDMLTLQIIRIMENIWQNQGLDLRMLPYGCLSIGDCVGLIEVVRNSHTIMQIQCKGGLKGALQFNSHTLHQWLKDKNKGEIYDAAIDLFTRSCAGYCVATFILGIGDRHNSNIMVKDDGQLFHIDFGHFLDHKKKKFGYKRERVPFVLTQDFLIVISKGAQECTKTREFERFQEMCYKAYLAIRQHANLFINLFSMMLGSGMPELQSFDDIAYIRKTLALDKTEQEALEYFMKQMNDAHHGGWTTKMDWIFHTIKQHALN
T1 sequence (P27986 whole entry partner): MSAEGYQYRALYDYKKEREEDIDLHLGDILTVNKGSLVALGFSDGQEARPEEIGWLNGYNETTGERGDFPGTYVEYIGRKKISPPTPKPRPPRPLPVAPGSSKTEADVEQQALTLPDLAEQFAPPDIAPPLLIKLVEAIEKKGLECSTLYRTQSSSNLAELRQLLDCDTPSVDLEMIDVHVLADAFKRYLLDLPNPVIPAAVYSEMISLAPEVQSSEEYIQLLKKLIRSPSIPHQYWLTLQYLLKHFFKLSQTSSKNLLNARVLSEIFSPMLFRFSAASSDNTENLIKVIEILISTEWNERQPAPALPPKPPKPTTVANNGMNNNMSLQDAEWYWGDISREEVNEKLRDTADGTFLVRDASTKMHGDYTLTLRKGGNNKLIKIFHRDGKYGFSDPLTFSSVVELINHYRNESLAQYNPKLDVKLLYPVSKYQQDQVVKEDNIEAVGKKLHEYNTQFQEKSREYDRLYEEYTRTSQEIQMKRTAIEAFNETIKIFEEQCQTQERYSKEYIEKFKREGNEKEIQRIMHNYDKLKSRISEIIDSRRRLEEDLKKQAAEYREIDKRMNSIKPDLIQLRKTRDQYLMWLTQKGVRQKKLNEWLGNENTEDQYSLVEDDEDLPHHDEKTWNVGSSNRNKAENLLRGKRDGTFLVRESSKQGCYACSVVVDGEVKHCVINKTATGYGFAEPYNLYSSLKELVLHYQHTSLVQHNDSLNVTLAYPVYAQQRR
From the text: (§1) A PI3-Kinase HTRF® assay kit (cat No. 33-016) purchased from Millipore Corporation was used to screen compounds provided herein. This assay used specific, high affinity binding of the GRP1 pleckstrin homology (PH) domain to PIP3, the product of a Class 1A or 1B PI3 Kinase acting on its physiological substrate PIP2. During the detection phase of the assay, a complex was generated between the GST-tagged PH domain and biotinylated short chain PIP3. The biotinylated PIP3 and the GST-tagged PH domain recruited fluorophores (Streptavidin-Allophycocyanin and Europium-labeled anti-GST respectively) to form the fluorescence resonance energy transfer (FRET) architecture, generating a stable time-resolved FRET signal. The FRET complex was disrupted in a competitive manner by non-biotinylated PIP3, a product formed in the PI3 Kinase assay.
(§2) PI3 Kinase α, β, γ and δ activity was assayed using the PI3 Kinase HTRF® assay kit (catalogue No. 33-016) purchased from Millipore Corporation. Purified recombinant PI3Kα (catalogue No. 14-602-K), PI3Kβ (catalogue No. 14-603-K), PI3Kγ (catalogue No. 14-558-K) and PI3Kδ (catalogue No. 14-604-K) were obtained from Millipore Corporation. Purified recombinant PI3K enzyme was used to catalyze the phosphorylation of phosphatidylinositol 4,5-bisphosphate (PIP2 at 10 μM) to phosphatidylinositol 3,4,5-trisphosphate (PIP3) in the presence of 10 μM ATP. The assay was carried out in 384-well format and detected using a Perkin Elmer EnVision Xcite Multilabel Reader. Emission ratios were converted into percent inhibitions and imported into GraphPad Prism software. The concentration necessary to achieve inhibition of enzyme activity by 50% (IC50) was calculated using concentrations ranging from 20 μM to 0.1 nM (12-point curve). IC50 values were determined using a nonlinear regression model available in GraphPad Prism 5.

PI3Kβ = molecular target: T2, PI3Kβ (Homo sapiens, UniProt P42338); experiment: PI3 Kinase HTRF assay, PI3Kβ; type: biochemical; details: Between 1 μM and 10 μM; read-out: PI3K β IC50
T2 construct: purchased Millipore Corporation 14-603-K
T2 sequence (P42338 whole entry): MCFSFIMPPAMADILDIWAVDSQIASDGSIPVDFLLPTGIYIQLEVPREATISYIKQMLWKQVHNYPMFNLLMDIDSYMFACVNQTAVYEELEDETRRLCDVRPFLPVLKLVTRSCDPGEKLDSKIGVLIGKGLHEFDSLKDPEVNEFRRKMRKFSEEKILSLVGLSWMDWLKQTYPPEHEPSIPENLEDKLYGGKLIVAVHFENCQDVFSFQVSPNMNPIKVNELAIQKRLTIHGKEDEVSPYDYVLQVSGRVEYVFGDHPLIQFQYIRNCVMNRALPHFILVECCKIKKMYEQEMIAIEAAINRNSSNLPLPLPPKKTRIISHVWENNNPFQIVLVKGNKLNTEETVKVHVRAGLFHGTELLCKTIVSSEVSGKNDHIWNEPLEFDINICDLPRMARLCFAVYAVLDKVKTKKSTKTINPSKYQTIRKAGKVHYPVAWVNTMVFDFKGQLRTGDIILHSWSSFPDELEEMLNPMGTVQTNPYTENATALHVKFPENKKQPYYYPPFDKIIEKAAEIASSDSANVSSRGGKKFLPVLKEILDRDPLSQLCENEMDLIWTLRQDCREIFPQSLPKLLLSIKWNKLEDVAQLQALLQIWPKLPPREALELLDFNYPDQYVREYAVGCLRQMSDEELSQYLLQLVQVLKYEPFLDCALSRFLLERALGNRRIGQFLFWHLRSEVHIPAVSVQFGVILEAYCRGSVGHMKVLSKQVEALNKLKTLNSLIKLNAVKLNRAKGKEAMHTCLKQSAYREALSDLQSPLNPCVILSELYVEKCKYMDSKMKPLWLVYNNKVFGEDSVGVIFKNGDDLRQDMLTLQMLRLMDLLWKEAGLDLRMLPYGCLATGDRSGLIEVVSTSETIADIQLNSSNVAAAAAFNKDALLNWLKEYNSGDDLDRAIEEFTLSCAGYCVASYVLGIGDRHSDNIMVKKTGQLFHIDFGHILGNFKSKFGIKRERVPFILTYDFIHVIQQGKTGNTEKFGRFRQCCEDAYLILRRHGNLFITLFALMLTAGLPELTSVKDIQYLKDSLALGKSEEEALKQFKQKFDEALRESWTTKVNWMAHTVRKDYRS
T2 sequence (P27986 2-724 partner limits assumed): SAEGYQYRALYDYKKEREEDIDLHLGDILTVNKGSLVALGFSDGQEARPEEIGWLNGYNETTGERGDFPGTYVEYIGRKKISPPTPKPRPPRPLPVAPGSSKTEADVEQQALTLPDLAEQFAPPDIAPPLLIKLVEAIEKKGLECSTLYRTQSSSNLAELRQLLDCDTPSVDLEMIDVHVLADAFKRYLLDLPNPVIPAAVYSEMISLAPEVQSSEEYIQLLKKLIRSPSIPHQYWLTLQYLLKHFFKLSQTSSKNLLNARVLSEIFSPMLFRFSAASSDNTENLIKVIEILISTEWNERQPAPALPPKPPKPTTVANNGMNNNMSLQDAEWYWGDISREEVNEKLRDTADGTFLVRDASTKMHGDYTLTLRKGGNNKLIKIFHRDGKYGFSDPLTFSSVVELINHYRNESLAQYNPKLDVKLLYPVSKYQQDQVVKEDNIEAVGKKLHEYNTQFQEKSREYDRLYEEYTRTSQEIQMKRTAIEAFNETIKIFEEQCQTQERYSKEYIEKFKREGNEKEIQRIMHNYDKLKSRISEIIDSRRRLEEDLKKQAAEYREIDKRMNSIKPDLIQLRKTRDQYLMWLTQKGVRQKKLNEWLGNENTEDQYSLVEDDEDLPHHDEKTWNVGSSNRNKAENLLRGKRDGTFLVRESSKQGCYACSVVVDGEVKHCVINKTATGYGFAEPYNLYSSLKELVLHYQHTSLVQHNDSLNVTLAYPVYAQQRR
From the text: as §1, §2

Balb/c splenic B cells = experiment: B cell activation and proliferation assay (Alamar Blue); type: cell-based; details: Mus musculus
Experimental: The ability of one or more subject compounds to inhibit B cell activitation and proliferation is determined according to standard procedures known in the art. For example, an in vitro cellular proliferation assay is established that measures the metabolic activity of live cells. The assay is performed in a 96 well microtiter plate using Alamar Blue reduction. Balb/c splenic B cells are purified over a Ficoll-Paque™ PLUS gradient followed by magnetic cell separation using a MACS B cell Isolation Kit (Miletenyi). Cells are plated in 90 μl at 50,000 cells/well in B Cell Media (RPMI+10% FBS+Penn/Strep+50 μM bME+5 mM HEPES). A compound provided herein is diluted in B Cell Media and added in a 10 μl volume. Plates are incubated for 30 min at 37° C. and 5% CO2 (0.2% DMSO final concentration). A 50 μl B cell stimulation cocktail is then added containing either 10 μg/ml LPS or 5 μg/ml F(ab′)2 Donkey anti-mouse IgM plus 2 ng/ml recombinant mouse IL4 in B Cell Media. Plates are incubated for 72 hours at 37° C. and 5% CO2. A volume of 15 μL of Alamar Blue reagent is added to each well and plates are incubated for 5 hours at 37° C. and 5% CO2. Alamar Blue fluoresce is read at 560Ex/590Em, and IC50 or EC50 values are calculated using GraphPad Prism 5.

[3] = system: phospho-AKT in SKOV-3 cells; experiment: PI3Kα selective cellular assay, phospho-AKT in SKOV-3 cells; type: cell-based; details: Homo sapiens, SK-OV-3, SKOV-3 cell model
From the text: (§3) A compound's ability in selectively inhibiting PI3Kα can be assessed using SKOV-3 cells, i.e., human ovarian carcinoma cell line. Briefly, SKOV-3 cells, in which mutant PI3Kα is constitutively active, can be treated with test compounds. Test compounds' ability to inhibit AKT phosphorylation in SKOV-3 cells, therefore, is indicative of selective inhibition of PI3Kα. Thus, by monitoring the reduction of phospho-AKT in SKOV-3 cells (using for example, phospho-AKT antibodies), a compound's potential efficacy in selectively inhibiting PI3Kα can be assessed.
Certain compounds provided herein (e.g., Compounds 5, 38, 103, and 106) were tested in SKOV-3 cell model using procedures as described above.

[4] = system: phospho-AKT in 786-O cells; experiment: PI3Kβ selective cellular assay, phospho-AKT in 786-O cells; type: cell-based; details: Homo sapiens, 786-0, 786-O cell model
From the text: as §3, with “PI3Kβ” for “PI3Kα”, “786-O” for “SKOV-3”, “kidney” for “ovarian”, “PI3Kβ” for “mutant PI3Kα”, “PI3Kβ.” for “PI3Kα.”
Certain compounds provided herein (e.g., Compounds 5, 38, 103, and 106) were tested in 786-O cell model using procedures as described above.

PI3Kγ = molecular target: T3, PI3Kγ (Homo sapiens, UniProt P48736); experiment: PI3 Kinase HTRF assay, PI3Kγ; type: biochemical; details: Between 1 μM and 10 μM; read-out: PI3K γ IC50
T3 construct: purchased Millipore Corporation 14-558-K
From the text: as §1, §2

PI3Kδ = molecular target: T4, PI3Kδ (Homo sapiens, UniProt O00329); experiment: PI3 Kinase HTRF assay, PI3Kδ; type: biochemical; details: Between 1 μM and 10 μM; read-out: PI3K δ IC50
T4 construct: purchased Millipore Corporation 14-604-K
T4 sequence (O00329 whole entry): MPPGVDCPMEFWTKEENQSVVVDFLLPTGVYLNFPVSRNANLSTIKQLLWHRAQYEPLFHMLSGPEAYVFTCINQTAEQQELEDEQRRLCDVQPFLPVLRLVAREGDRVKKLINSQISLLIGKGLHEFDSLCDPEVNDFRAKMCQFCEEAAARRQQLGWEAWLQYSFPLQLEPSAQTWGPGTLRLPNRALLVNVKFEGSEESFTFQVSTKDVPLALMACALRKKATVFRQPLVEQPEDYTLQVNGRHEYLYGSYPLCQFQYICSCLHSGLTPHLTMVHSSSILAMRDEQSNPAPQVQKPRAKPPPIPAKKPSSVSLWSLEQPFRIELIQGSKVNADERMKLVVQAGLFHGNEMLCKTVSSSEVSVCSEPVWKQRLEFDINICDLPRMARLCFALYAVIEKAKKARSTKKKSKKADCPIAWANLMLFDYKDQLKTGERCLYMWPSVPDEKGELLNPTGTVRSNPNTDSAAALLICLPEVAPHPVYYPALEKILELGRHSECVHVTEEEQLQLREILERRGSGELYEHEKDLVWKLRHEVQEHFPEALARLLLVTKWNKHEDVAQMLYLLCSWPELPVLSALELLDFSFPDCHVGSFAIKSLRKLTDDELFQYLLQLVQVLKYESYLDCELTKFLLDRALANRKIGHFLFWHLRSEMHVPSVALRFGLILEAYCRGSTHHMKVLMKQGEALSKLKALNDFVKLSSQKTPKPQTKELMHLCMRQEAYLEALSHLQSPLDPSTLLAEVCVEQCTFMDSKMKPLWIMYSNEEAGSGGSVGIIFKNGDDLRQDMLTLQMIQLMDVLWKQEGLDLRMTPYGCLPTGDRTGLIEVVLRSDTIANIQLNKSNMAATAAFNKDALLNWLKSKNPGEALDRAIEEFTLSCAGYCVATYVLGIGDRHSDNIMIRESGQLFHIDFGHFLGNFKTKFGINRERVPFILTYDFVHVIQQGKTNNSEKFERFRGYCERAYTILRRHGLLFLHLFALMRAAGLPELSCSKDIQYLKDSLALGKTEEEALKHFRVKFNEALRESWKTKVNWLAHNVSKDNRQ
T4 sequence (P27986 whole entry partner): as the sequence (P27986 whole entry partner) above
From the text: as §1, §2

B6.Sle1z.Sle3z model = details: cited from earlier work
[5] = PBS pH 7.4, 37° C., 24 hours, 5 μM; cited from earlier work
[6] = human plasma, 5 μM; cited from earlier work
[7] = range between 100 nM and 1 μM (bounds carry own units)

Compound: Cc1nc2c(N[C@@H](C)c3cc4cccc(-c5cnn(C)c5)c4c(=O)n3-c3ccccc3)ncnc2s1 [Compound 79]
IC50 (PI3Kγ): 1 to 10 µM | IC50 (PI3Kδ): 1 to 10 µM

Compound: Cc1nsc2cc(C(C)Nc3ncnc4scnc34)n(-c3ccccc3)c(=O)c12 (stereo not shown) [Compound 12]
IC50 (PI3Kβ): 1 to 10 µM | EC50 (Balb/c splenic B cells; Less than 100 nanoMolar): < 0.1 µM | IC50 (PI3Kγ): 1 to 10 µM

Compound: C[C@H](Nc1ncnc2scnc12)c1cc2cccc(C(=O)N3CCOCC3)c2c(=O)n1-c1ccccc1 [Compound 86]
IC50 (PI3Kγ): 1 to 10 µM

Compound: Cc1sc2ncnc(N[C@@H](C)c3cc4cccc(Cl)c4c(=O)n3-c3ccccc3)c2c1C [Compound 97]
EC50 (Balb/c splenic B cells; Between 1 μM and 10 μM): 1 to 10 µM | IC50 (PI3Kγ): 1 to 10 µM

Compound: CO[C@H]1C[C@@H]2CC[C@@H](C)[C@@](O)(O2)C(=O)C(=O)N2CCCC[C@H]2C(=O)O[C@H]([C@H](C)C[C@@H]2CC[C@@H](OCCO)[C@H](OC)C2)CC(=O)[C@H](C)/C=C(\C)[C@@H](O)[C@@H](OC)C(=O)[C@H](C)C[C@H](C)/C=C/C=C/C=C/1C [RAD001, everolimus]
lupus symptoms (B6.Sle1z.Sle3z model): ameliorate lupus symptoms

Compound: O=C(O)CCCc1ccc(N(CCCl)CCCl)cc1 [chlorambucil]
chemical stability [5]: largely hydrolyzed over the course of 24 hours

Compound: CCCOc1cc(N)ccc1C(=O)OCCN(CC)CC [propoxycaine]
plasma stability [6]: low plasma stability

Compound: CC(C)n1c([C@H](C)Nc2ncnc3scnc23)cc2cccc(-c3ccc(=O)n(C)c3)c2c1=O [Compound 103]
IC50 (PI3Kβ): 1 to 10 µM | IC50 [1, 7]: 0.1 to 1 µM | IC50 [2]: < 0.1 µM | IC50 [3, 7]: 0.1 to 1 µM | IC50 (PI3Kα): 1 to 10 µM | IC50 [4, 7]: 0.1 to 1 µM

Compound: C[C@H](Nc1ncnc2scnc12)c1cc2cccc(C(=O)O)c2c(=O)n1-c1ccccc1 [Compound 84]
EC50 (Balb/c splenic B cells; Between 100 nM and 1 μM): 0.1 to 1 µM | IC50 (PI3Kγ): 1 to 10 µM | IC50 (PI3Kδ): 1 to 10 µM

Compound: Cc1nc2c(N[C@@H](C)c3cc4cccc(Cl)c4c(=O)n3-c3cccc(F)c3)ncnc2s1 [Compound 78]
IC50 (PI3Kδ): 1 to 10 µM

Compound: C[C@H](Nc1ncnc2scnc12)c1cc2cccc(-c3cnc4c(c3)CCCC4)c2c(=O)n1-c1ccccc1 [Compound 59]
EC50 (Balb/c splenic B cells; Between 1 μM and 10 μM): 1 to 10 µM | IC50 (PI3Kγ): 1 to 10 µM | IC50 (PI3Kδ): 1 to 10 µM

Compound: C[C@H](Nc1ncnc2scc(-c3ccccc3)c12)c1cc2cccc(Cl)c2c(=O)n1-c1ccccc1 [Compound 98]
IC50 (PI3Kγ): 1 to 10 µM

Compound: CC(C)[N+](C)(CCOC(=O)C1c2ccccc2Oc2ccccc21)C(C)C [propantheline]
plasma stability [6]: intermediate plasma stability

The next lines start with results.

IC50 [1, 7]: 0.1 to 1 µM | IC50 [2]: < 0.1 µM | IC50 (PI3Kα): 1 to 10 µM
Compound: C[C@H](Nc1ncnc2scnc12)c1cc2cccc(-c3cncc(N)c3)c2c(=O)n1-c1ccccc1 [Compound 109]

IC50 (PI3Kβ): 1 to 10 µM | IC50 [1, 7]: 0.1 to 1 µM | IC50 [2]: < 0.1 µM | IC50 [3]: 1 to 10 µM | IC50 (PI3Kα): 1 to 10 µM | IC50 [4]: 1 to 10 µM
Compound: COc1ncc(-c2cccc3cc([C@H](C)Nc4ncnc5scnc45)n(-c4ccccc4)c(=O)c23)cn1 [Compound 38]
EC50 (Balb/c splenic B cells; Less than 100 nanoMolar): < 0.1 µM

IC50 (PI3Kβ): 1 to 10 µM | IC50 [1]: 1 to 10 µM | IC50 [2]: < 0.1 µM | IC50 [3, 7]: 0.1 to 1 µM | IC50 (PI3Kα): 1 to 10 µM | IC50 [4, 7]: 0.1 to 1 µM
Compound: COc1ncc(-c2cccc3cc([C@H](C)Nc4ncnc5scnc45)n(-c4ccon4)c(=O)c23)cn1 [Compound 106]

IC50 [1, 7]: 0.1 to 1 µM | IC50 [2]: < 0.1 µM
Compound: Cc1ncc(-c2cccc3cc([C@H](C)Nc4ncnc5scnc45)n(-c4ccon4)c(=O)c23)cn1 [Compound 107]

IC50 (PI3Kβ): 1 to 10 µM | IC50 [1]: < 0.1 µM | IC50 [2]: < 0.1 µM | IC50 [3, 7]: 0.1 to 1 µM | IC50 [4]: 1 to 10 µM
Compound: C[C@H](Nc1ncnc2scnc12)c1cc2cccc(-c3cnn(C)c3)c2c(=O)n1-c1ccccc1 [Compound 5]
EC50 (Balb/c splenic B cells; Less than 100 nanoMolar): < 0.1 µM

IC50 [1]: 1 to 10 µM | IC50 [2]: < 0.1 µM
Compound: CC(C)n1c([C@H](C)Nc2ncnc3scnc23)cc2cccc(-c3ccnnc3)c2c1=O [Compound 108]

IC50 (PI3Kβ): 1 to 10 µM | IC50 (PI3Kγ): 1 to 10 µM | IC50 (PI3Kα): 1 to 10 µM
Compound: C[C@H](Nc1ncnc2scnc12)c1cc2cccc(-c3cnn(C)c3)c2c(=O)n1C [Compound 82]
EC50 (Balb/c splenic B cells; Between 100 nM and 1 μM): 0.1 to 1 µM

IC50 [1, 7]: 0.1 to 1 µM | IC50 [2]: < 0.1 µM
Compound: C[C@H](Nc1ncnc2scnc12)c1cc2cccc(Cl)c2c(=O)n1-c1ccon1 [Compound 105]
